The structures appear in SMILES notation.

In general, inhibition refers to the drop in the measured response relative to a control, in per cent.

Holding throughout (assay): Nanosyn kinase profiling
Holding throughout (type): biochemical
Common to all, as to conditions: read-out: Percentage inhibition; for inhibition at 0.1 µM: 0.1 µM inhibitor; for inhibition at 1 µM: 1 µM inhibitor

One assay deals with T1, DYRK1B (Homo sapiens, UniProt Q9Y463).
T1 construct: purchased Nanosyn (enzymatic panel); SGC in-house recombinant human kinases (DSF panel); Invitrogen (ALK1-6)
T1 sequence (Q9Y463 whole entry): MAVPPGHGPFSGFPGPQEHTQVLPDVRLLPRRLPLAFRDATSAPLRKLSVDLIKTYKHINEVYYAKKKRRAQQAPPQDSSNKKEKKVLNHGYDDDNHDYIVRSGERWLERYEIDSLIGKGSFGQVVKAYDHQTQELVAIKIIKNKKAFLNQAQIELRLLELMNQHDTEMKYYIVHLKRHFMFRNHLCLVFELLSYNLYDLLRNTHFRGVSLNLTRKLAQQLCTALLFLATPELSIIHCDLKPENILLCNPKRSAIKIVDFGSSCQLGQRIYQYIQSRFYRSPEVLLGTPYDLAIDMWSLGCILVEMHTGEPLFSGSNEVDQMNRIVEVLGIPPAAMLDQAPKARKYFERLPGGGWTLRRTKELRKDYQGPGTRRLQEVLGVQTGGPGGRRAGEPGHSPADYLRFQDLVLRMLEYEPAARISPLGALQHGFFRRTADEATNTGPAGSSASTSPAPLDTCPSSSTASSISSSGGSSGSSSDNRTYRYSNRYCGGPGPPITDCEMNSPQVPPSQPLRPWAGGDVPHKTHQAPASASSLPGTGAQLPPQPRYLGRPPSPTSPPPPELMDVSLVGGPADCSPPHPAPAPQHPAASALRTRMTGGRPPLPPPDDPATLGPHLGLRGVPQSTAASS
The method, boiled down: (§1)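 Percent inhibition of each kinase was measured with the inhibitor at 0.1 µM and at 1 µM, as part of a 200-kinase human selectivity panel.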

The target of the next assay is T2, EPHA4 (Homo sapiens, UniProt P54764).
T2 construct: purchased Nanosyn (enzymatic panel); SGC in-house recombinant human kinases (DSF panel); Invitrogen (ALK1-6)
T2 sequence (P54764 20-986): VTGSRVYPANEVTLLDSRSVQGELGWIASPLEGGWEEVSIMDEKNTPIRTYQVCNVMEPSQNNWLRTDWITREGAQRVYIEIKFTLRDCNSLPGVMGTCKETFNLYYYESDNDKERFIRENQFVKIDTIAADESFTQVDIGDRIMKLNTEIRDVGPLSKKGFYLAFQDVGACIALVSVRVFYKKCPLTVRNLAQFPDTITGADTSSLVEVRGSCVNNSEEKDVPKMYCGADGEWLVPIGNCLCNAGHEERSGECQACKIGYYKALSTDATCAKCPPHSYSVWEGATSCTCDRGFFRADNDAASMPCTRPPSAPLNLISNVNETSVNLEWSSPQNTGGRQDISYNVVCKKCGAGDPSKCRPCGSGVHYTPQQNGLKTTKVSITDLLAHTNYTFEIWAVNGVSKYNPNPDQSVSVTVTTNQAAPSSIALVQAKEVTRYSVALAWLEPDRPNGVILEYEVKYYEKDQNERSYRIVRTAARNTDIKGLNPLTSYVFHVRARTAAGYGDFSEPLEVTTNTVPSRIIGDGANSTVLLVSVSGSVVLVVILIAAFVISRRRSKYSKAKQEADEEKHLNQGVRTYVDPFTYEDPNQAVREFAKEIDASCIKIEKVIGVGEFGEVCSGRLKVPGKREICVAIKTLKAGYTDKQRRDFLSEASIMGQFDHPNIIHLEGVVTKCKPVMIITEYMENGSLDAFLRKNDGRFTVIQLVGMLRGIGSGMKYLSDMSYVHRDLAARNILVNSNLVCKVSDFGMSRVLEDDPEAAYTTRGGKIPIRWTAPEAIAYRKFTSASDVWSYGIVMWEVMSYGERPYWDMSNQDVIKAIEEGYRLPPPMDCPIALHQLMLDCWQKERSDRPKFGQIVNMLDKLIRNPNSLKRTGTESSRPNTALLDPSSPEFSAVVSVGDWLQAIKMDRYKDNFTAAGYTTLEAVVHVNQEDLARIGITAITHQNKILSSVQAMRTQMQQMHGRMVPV
In a few lines: as §1

The target of the next assay is T3, TRKB (Homo sapiens, UniProt Q16620).
T3 construct: purchased Nanosyn (enzymatic panel); SGC in-house recombinant human kinases (DSF panel); Invitrogen (ALK1-6)
T3 sequence (Q16620 32-822): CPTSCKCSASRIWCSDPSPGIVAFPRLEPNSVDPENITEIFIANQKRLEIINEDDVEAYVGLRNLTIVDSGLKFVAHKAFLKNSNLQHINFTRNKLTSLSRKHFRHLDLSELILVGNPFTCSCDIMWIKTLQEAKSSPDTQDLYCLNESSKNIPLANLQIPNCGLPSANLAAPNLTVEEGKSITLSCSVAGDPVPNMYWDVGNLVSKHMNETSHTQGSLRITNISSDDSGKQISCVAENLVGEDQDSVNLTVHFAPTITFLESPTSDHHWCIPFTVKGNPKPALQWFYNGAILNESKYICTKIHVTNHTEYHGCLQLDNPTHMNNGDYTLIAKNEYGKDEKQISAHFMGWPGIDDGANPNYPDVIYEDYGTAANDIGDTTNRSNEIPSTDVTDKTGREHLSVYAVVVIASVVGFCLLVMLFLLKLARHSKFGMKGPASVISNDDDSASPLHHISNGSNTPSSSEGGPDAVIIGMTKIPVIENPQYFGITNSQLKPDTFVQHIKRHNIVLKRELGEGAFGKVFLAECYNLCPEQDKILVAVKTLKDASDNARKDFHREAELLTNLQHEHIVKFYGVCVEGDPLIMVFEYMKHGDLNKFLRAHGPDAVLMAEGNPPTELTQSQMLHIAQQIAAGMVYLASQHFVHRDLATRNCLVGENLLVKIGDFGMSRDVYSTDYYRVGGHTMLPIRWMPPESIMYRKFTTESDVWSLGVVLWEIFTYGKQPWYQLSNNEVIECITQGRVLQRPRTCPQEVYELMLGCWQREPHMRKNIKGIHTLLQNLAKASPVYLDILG
The method, boiled down: as §1

The target in the next assay is T4, BRSK2 (Homo sapiens, UniProt Q8IWQ3).
T4 construct: purchased Nanosyn (enzymatic panel); SGC in-house recombinant human kinases (DSF panel); Invitrogen (ALK1-6)
T4 sequence (Q8IWQ3 1-736): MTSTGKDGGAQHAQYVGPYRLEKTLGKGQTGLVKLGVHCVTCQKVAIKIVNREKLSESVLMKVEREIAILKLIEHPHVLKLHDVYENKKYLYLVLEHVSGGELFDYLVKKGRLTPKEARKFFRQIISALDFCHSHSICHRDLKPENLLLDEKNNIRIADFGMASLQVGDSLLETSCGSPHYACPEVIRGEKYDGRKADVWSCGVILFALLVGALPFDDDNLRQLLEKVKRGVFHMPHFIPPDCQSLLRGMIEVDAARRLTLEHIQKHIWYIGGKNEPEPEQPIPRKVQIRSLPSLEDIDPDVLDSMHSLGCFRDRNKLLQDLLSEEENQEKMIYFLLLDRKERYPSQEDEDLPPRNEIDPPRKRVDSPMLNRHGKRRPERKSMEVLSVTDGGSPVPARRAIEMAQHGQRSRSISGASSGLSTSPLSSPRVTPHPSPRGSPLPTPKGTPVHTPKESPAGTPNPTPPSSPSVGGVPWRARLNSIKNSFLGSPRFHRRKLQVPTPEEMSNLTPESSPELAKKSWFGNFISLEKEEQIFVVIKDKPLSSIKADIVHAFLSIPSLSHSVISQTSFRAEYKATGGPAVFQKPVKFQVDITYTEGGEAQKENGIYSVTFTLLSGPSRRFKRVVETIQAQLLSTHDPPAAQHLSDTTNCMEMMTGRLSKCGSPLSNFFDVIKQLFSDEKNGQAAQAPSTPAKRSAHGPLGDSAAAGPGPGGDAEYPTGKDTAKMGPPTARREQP
In a few lines: as §1

The target of a further assay is T5, LYNA (Homo sapiens, UniProt P07948).
T5 construct: purchased Nanosyn (enzymatic panel); SGC in-house recombinant human kinases (DSF panel); Invitrogen (ALK1-6)
T5 sequence (P07948 whole entry): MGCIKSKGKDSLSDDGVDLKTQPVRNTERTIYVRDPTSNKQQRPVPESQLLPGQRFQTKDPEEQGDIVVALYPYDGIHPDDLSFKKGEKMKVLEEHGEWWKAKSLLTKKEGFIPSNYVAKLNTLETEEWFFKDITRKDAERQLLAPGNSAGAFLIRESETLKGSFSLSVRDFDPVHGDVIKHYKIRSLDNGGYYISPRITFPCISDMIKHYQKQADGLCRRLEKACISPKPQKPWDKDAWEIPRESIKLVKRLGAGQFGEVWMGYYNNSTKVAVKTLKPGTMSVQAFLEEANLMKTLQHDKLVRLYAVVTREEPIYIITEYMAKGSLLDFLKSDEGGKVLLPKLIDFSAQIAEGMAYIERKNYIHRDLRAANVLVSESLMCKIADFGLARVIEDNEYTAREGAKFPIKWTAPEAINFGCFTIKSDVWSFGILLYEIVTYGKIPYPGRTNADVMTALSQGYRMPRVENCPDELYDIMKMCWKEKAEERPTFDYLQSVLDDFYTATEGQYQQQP
The method, boiled down:
as §1

The target of a further assay is T6, PIM1 (Homo sapiens, UniProt P11309).
T6 construct: purchased Nanosyn (enzymatic panel); SGC in-house recombinant human kinases (DSF panel); Invitrogen (ALK1-6)
T6 sequence (P11309 whole entry): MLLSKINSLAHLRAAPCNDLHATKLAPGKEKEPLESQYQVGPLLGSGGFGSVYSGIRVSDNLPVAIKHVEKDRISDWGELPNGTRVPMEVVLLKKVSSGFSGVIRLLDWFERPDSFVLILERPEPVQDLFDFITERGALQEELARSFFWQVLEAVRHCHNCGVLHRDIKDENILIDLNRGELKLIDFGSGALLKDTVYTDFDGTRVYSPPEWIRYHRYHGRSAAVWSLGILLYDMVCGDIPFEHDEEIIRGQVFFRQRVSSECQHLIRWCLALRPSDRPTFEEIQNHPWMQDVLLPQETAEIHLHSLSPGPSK
The method, boiled down:
as §1

In the next assay the target is T7, TEC (Homo sapiens, UniProt P42680).
T7 construct: purchased Nanosyn (enzymatic panel); SGC in-house recombinant human kinases (DSF panel); Invitrogen (ALK1-6)
T7 sequence (P42680 1-631): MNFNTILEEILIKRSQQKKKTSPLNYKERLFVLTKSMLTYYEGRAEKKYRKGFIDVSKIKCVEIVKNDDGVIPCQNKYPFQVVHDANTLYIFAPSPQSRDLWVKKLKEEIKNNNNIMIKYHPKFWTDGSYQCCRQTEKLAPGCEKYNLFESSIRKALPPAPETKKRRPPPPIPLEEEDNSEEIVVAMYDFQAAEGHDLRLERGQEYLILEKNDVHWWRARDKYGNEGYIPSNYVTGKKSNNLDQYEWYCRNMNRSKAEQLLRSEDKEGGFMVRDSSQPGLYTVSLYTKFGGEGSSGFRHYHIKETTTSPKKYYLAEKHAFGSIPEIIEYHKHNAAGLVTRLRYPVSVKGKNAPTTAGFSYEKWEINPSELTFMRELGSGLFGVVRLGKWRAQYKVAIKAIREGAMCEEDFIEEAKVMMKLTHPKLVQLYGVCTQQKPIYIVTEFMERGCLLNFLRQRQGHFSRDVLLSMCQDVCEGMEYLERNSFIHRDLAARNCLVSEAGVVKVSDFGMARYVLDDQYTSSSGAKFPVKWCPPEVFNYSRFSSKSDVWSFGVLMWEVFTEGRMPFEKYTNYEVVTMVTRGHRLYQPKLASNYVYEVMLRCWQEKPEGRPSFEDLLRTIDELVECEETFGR
The method, boiled down:
as §1

The next assay addresses T8, SRPK1 (Homo sapiens, UniProt Q96SB4).
T8 construct: purchased Nanosyn (enzymatic panel); SGC in-house recombinant human kinases (DSF panel); Invitrogen (ALK1-6)
In a few lines:
as §1

The target of a further assay is T9, MEK1 (Homo sapiens, UniProt Q02750).
T9 construct: purchased Nanosyn (enzymatic panel); SGC in-house recombinant human kinases (DSF panel); Invitrogen (ALK1-6)
T9 sequence (Q02750 whole entry): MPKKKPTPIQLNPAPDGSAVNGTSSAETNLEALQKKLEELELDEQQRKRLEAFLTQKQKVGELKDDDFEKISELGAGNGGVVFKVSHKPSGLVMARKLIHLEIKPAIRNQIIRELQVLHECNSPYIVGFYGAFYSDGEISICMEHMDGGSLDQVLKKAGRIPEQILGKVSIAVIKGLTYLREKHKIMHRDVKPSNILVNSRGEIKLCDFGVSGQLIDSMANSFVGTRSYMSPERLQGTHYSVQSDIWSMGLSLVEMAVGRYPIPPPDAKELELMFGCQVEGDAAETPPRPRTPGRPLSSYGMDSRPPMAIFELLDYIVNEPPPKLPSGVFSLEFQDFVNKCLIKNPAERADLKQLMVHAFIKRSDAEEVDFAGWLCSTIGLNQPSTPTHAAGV
In a few lines: as §1

Another assay has as its target T10, PRKG2 (Homo sapiens, UniProt Q13237).
T10 construct: purchased Nanosyn (enzymatic panel); SGC in-house recombinant human kinases (DSF panel); Invitrogen (ALK1-6)
T10 sequence (Q13237 1-762): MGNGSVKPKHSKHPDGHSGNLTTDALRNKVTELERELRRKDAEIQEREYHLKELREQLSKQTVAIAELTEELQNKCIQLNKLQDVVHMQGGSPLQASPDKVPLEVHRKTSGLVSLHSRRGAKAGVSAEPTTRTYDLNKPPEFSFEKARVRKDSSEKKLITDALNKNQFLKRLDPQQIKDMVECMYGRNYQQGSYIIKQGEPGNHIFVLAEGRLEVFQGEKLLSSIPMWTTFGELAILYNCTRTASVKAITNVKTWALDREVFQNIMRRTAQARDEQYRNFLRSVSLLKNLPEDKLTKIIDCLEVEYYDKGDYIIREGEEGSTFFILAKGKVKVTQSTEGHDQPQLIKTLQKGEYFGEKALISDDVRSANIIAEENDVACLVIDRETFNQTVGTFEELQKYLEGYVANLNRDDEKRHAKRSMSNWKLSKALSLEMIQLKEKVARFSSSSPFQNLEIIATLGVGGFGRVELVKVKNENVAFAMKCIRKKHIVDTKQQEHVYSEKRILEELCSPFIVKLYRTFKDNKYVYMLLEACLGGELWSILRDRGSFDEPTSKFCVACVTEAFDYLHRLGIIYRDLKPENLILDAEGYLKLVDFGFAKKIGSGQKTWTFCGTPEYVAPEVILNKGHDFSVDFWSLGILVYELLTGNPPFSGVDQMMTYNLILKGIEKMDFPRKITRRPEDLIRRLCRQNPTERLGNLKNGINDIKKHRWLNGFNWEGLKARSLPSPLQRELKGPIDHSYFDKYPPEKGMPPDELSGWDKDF
In a few lines: as §1

T8 sequence (Q96SB4 whole entry): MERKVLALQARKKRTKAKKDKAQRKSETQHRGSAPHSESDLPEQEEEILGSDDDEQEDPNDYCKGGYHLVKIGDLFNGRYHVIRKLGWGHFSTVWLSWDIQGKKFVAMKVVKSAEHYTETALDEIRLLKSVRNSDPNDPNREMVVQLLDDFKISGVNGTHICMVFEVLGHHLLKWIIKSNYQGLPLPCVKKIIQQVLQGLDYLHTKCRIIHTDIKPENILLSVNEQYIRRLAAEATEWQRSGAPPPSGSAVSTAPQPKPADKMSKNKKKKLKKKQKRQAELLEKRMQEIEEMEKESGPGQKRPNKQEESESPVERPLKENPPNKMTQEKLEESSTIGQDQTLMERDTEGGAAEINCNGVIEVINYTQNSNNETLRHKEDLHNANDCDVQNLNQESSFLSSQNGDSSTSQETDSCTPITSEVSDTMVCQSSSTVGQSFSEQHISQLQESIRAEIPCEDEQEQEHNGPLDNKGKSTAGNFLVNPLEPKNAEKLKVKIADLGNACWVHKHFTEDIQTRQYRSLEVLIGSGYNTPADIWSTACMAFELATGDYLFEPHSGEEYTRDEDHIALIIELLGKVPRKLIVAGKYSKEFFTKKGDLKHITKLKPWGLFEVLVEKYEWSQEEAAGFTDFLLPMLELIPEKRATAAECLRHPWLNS

Consider `COc1cc(-c2cc(-c3cccc(O)c3)cnc2N)cc(OC)c1OC` [K02288, 3-[6-amino-5-(3,4,5-trimethoxy-phenyl)-pyridin-3-yl]-phenol], for which the inhibition at 0.1 µM at DYRK1B was 2.6%; on EPHA4, -2%; at TRKB, 1.8%; at BRSK2, 0.9%; at LYNA, 9.7%; on PIM1, 0.2%. In addition, the inhibition at 0.1 µM at TEC was 0.3%; on SRPK1, 3.2%; at MEK1, -1%; on PRKG2, 1%. Also, the inhibition at 1 µM is 6% at DYRK1B; 17% at EPHA4; 3.9% at TRKB; 2.7% on BRSK2; 49% at LYNA; 1.5% on PIM1. Further, the inhibition at 1 µM at TEC was determined as 14%; at SRPK1, 2.7%; on MEK1, 10%; on PRKG2, 5%.

With `c1ccc2c(-c3cnn4cc(-c5ccc(N6CCNCC6)cc5)cnc34)ccnc2c1` [LDN-193189], the inhibition at 0.1 µM at DYRK1B is 7.1%; on EPHA4 it was 7.1%; at TRKB, 0.8%; at BRSK2 it was 4.4%; at LYNA, 9.1%; on PIM1, -1%. Further, the inhibition at 0.1 µM on TEC is 1.8%; at SRPK1, -1%; at MEK1, 1.4%; at PRKG2 it was 1.7%. The inhibition at 1 µM at DYRK1B was 41%; at EPHA4, 10%; at TRKB, 3%; on BRSK2, 22%; at LYNA, 39%; at PIM1, -1%. Besides, the inhibition at 1 µM at TEC is 5.5%; at SRPK1 it was -2%; on MEK1, 1%; on PRKG2, 9.3%.

These data come from PMC3639963, “A New Class of Small Molecule Inhibitor of BMP Signaling” (PLoS ONE, 2013).
